Test system: Histamin-induzierte Bronchokonstriktion
Assay: Influence on histamine-induced bronchoconstriction in anaesthetised, ventilated guinea pigs (modified Konzett-Rössler method), test substance given as aerosol
Assay type: in vivo, Meerschweinchen
Conditions: for % Hemmung der Histamin-induzierten Bronchokonstriktion: n = 6, change vs control
Experimental: a) Beeinflussung von Atemwegsstörungen Einfluß auf die histamin-induzierte Bronchokonstriktion am Meerschweinchen
Albino-Meerschweinchen beiderlei Geschlechts mit einem Gewicht zwischen 450 und 550 g wurden mit 60 mg/kg Pentobarbital i.p. narkotisiert. Nach Tracheotomie wurden sie mit einer Starlingpumpe (Fa. Braun, Melsungen) beatmet. Das Atemvolumen wurde so gewählt, daß die Lungen ausgiebig belüftet wurden. Der Beatmungsdruck wurde mit Hilfe einer Wassersäule auf 80 mm H₂O eingestellt (Rosenthal und Dervinis). Die Atemfrequenz betrug 30 Atemzüge/min. Ein Überschuß an verfügbarer Atemluft kann durch einen Nebenweg im Einatemschlauch zu einer als Wasser-Überdruckventil geschalteten Waschflasche gelangen. Wird von der Starling-Pumpe durch den Einatemschlauch Luft in die Lunge geblasen, so füllt sich diese so lange, bis der Druck in dem System den durch die Höhe der Wassersäule eingestellten Wert (80 mm H₂O) erreicht hat. Die noch weiter zuströmende Luft fließt durch das Überdruckventil in die Waschflasche. Dieser Luftüberschuß, der nach Überschreiten des eingestellten Drucks in die Flasche entweicht, wird mit Hilfe eines Pistonrekorders gemessen und gilt als Maß für eine Veränderung des Atemwiderstands. Die Messung erfolgte in einer von der ursprünglichen Konzett-Rössler-Methode leicht modifizierten Weise, indem der Pistonrekorder durch ein Staudruckrohr nach Fleisch (Typ 0000) ersetzt wurde. Der auftretende Druckunterschled wurde mit einem Differenzdruckwandler Statham PM 97 TC erfaßt. Zur Aufzeichnung der Meßwerte diente ein Mehrfachkanalschreiber der Fa. Hellige.
Die Testsubstanzen werden als Aerosol mit Hilfe eines Ultraschallverneblers (Monaghan M 650) verabreicht. Die Verneblerkammer wird in den Einatemschlauch der Atempumpe zwischengeschaltet und den Tieren gestattet, das Aerosol 1 min lang einzuatmen. Das zu vernebelnde Volumen beträgt 0,02 ml/min.
Vernebelt wird eine physiologische Kochsalzlösung, der die zu prüfende Substanz in Form einer Lösung in Propandiol zugesetzt wird.
In einem Kontrollversuch wird sichergestellt, daß das Lösemittel Propandiol/physiologische Kochsalzlösung keine Eigenwirkung besitzt.
Eine Bronchokonstriktion wird durch Gaben von Histamindihydrochlorid (6 - 12 »g/kg i.v.) induziert. Die Injektion erfolgt durch einen in die V. jugularis eingeführten Katheter. Die Dosierung wird so gewählt, daß ein respiratorischer "Überfluß" von 60 % des angebotenen Atemvolumens während der Histamin-induzierten Bronchokonstriktion auftritt. Die Histamingaben erfolgen in 5-Minuten-Intervallen. Nach mindestens 3 gut reproduzierbaren Bronchokonstriktionen werden die Testsubstanzen als Aerosol 1 min lang verabreicht und nach einer Einwirkungszeit von 2 min erneut die Bronchokonstriktion induziert und in 5-Minuten-Intervallen wiederholt. […]

`CC1(C)Oc2ccc(S(=O)(=O)c3ccccc3)cc2C(N2CCCC2=O)C1O` (single isomer, unassigned; (+)) [Beispiel 5a, (+)-3,4-Dihydro-2,2-dimethyl-6-phenylsulfonyl-4-(2-oxo-1-pyrrolidinyl)-2H-benzo[b]pyran-3-ol] was tested. Which ED50 (Cavia porcellus, inhaled or nasal, aerosol, determined by linear regression of the % inhibition results, read-out: ID₅₀) did it give?
Its ED50 is 4.39 µg/kg.

What about the “% Hemmung der Histamin-induzierten Bronchokonstriktion” value (Dosis 1 »g/kg as aerosol for 1 min) of the same compound?
The value was 14 ± 4%.

And the “% Hemmung der Histamin-induzierten Bronchokonstriktion” value (Dosis 3 »g/kg as aerosol for 1 min)?
Its value is 35 ± 4%.

And the “% Hemmung der Histamin-induzierten Bronchokonstriktion” value (Dosis 10 »g/kg as aerosol for 1 min)?
The value was 77 ± 7%.

— patent EP0351720B1, “Use of substituted 3,4-dihydro-2H-benzopyrans as medicaments against obstructive disorders of the lung” (HOECHST AKTIENGESELLSCHAFT, priority 1988, dated 1990)
